Data taken from ChEMBL document CHEMBL1149304, “1,3,4-thiadiazole derivatives. Synthesis, structure elucidation, and structure-antituberculosis activity relationship investigation” (2004).

Tested on: Mycobacterium tuberculosis
Test: Antituberculosis activity against Mycobacterium tuberculosis H37Rv ATCC 27294 at 6.25 ug/mL
Assay type: functional

Structure (SMILES)	inhibition at 6.25 µg/mL
Clc1ccc(Nc2nnc(-c3ccccc3)s2)cc1	30%
Fc1ccc(Nc2nnc(-c3ccccc3)s2)cc1	50%
Fc1ccc(-c2nnc(Nc3ccc(Cl)cc3)s2)cc1	42%
Cc1ccc(Nc2nnc(-c3ccncc3)s2)cc1	38%
O=[N+]([O-])c1ccc(Nc2nnc(-c3ccncc3)s2)cc1	18%
Fc1ccc(Nc2nnc(-c3ccc(Cl)cc3)s2)cc1	54%
Fc1ccc(Nc2nnc(-c3ccc(F)cc3)s2)cc1	52%
O=[N+]([O-])c1ccc(Nc2nnc(-c3ccc([N+](=O)[O-])cc3)s2)cc1	20%
Fc1ccc(-c2nnc(Nc3ccc(Br)cc3)s2)cc1	40%
Clc1ccc(Nc2nnc(-c3ccncc3)s2)cc1	59%
O=[N+]([O-])c1ccc(-c2nnc(Nc3ccc(F)cc3)s2)cc1	30%
Cc1ccc(Nc2nnc(-c3ccccc3)s2)cc1	21%
O=[N+]([O-])c1ccc(Nc2nnc(-c3ccccc3)s2)cc1	18%
Brc1ccc(-c2nnc(Nc3ccccc3)s2)cc1	0%
O=[N+]([O-])c1ccc(Nc2nnc(-c3ccc(Br)cc3)s2)cc1	43%
Clc1ccc(-c2nnc(Nc3ccc(Br)cc3)s2)cc1	34%

Structure (SMILES)	inhibition at 6.25 µg/mL
Clc1ccc(Nc2nnc(-c3ccc(Cl)cc3)s2)cc1	32%
O=[N+]([O-])c1ccc(Nc2nnc(-c3ccc(F)cc3)s2)cc1	8%
O=[N+]([O-])c1ccc(-c2nnc(Nc3ccc(Br)cc3)s2)cc1	26%
Clc1ccc(Nc2nnc(-c3ccc(Br)cc3)s2)cc1	33%
Fc1ccc(Nc2nnc(-c3ccc(Br)cc3)s2)cc1	42%
Cc1ccc(Nc2nnc(-c3ccc(Br)cc3)s2)cc1	31%
Brc1ccc(Nc2nnc(-c3ccccc3)s2)cc1	36%
Brc1ccc(Nc2nnc(-c3ccncc3)s2)cc1	53%
c1ccc(Nc2nnc(-c3ccncc3)s2)cc1	38%
Brc1ccc(Nc2nnc(-c3ccc(Br)cc3)s2)cc1	33%
Cc1ccc(Nc2nnc(-c3ccc([N+](=O)[O-])cc3)s2)cc1	33%
O=[N+]([O-])c1ccc(Nc2nnc(-c3ccc(Cl)cc3)s2)cc1	44%
Cc1ccc(Nc2nnc(-c3ccc(Cl)cc3)s2)cc1	42%
Cc1ccc(Nc2nnc(-c3ccc(F)cc3)s2)cc1	39%
Fc1ccc(Nc2nnc(-c3ccncc3)s2)cc1	49%
O=[N+]([O-])c1ccc(-c2nnc(Nc3ccc(Cl)cc3)s2)cc1	29%
